Measured values reported in ChEMBL document CHEMBL1134704, “Design, synthesis, and SAR of amino acid derivatives as factor Xa inhibitors” (Bioorg Med Chem Lett, 2001).

Experiments:
Coagulation factor X [1] = biological target: T1, Coagulation factor X (Homo sapiens, UniProt P00742); test: Inhibitory activity against Coagulation factor X was determined
Prothrombin = Prothrombin (Homo sapiens, UniProt P00734); test: In vitro inhibition of human thrombin.
Coagulation factor X [2] = biological target: T1, Coagulation factor X; test: In vitro inhibition of human coagulation factor Xa.
Serine protease 1 = Serine protease 1 (Homo sapiens, UniProt P07477); test: In vitro inhibition of human trypsin.
Serine protease 1, sequence (P07477 whole entry): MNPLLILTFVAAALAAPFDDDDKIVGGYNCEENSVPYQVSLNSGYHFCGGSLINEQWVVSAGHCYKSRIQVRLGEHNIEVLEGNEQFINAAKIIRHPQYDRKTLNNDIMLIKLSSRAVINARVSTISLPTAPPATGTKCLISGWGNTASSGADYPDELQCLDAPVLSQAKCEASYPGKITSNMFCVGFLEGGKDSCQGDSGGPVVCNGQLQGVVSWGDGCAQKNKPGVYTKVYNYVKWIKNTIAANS

[3] = Oral bioavailability in rat; type: ADME, organism-based; conditions: in vivo
[4] = biological target: Vitamin K-dependent protein C (Homo sapiens, UniProt P04070); test: Inhibitory activity against activated protein C (APC)
Vitamin K-dependent protein C, sequence (P04070 43-197 limits assumed): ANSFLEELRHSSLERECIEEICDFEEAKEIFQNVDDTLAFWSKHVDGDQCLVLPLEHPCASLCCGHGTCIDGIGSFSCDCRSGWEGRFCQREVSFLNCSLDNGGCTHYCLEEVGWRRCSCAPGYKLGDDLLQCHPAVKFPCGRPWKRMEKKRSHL
Vitamin K-dependent protein C, sequence (P04070 212-461 limits assumed): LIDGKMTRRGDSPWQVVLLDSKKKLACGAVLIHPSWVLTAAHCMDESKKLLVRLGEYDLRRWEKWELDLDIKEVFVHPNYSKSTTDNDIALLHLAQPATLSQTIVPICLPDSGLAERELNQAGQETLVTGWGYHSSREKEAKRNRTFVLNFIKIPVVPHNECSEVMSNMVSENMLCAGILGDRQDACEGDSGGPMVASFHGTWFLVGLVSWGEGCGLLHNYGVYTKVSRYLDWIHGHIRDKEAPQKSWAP

Plasminogen = Plasminogen (Homo sapiens, UniProt P00747); test: Inhibitory activity against plasmin
Plasminogen, sequence (P00747 97-580 limits assumed): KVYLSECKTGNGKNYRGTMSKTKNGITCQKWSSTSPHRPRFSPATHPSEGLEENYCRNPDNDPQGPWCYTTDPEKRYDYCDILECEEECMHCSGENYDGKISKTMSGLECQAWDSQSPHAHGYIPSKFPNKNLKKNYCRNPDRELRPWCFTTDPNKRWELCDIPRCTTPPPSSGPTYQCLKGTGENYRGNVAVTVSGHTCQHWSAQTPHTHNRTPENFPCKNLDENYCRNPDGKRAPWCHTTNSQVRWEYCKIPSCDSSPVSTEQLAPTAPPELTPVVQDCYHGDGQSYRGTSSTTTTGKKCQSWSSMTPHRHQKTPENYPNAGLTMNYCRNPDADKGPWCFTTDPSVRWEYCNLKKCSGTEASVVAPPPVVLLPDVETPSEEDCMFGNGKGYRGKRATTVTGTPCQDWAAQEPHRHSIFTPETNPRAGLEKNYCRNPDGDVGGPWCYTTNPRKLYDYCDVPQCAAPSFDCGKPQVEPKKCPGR
Plasminogen, sequence (P00747 581-810 limits assumed): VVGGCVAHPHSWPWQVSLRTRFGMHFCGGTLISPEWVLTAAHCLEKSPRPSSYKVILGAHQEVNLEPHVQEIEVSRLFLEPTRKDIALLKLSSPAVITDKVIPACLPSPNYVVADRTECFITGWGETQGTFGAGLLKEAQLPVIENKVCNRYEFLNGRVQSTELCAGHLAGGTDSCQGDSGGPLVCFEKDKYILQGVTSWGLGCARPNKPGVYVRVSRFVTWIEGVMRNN

[5] = biological target: Tissue-type plasminogen activator (Homo sapiens, UniProt P00750); test: Inhibitory activity against Tissue plasminogen activator
Tissue-type plasminogen activator, sequence (P00750 whole entry): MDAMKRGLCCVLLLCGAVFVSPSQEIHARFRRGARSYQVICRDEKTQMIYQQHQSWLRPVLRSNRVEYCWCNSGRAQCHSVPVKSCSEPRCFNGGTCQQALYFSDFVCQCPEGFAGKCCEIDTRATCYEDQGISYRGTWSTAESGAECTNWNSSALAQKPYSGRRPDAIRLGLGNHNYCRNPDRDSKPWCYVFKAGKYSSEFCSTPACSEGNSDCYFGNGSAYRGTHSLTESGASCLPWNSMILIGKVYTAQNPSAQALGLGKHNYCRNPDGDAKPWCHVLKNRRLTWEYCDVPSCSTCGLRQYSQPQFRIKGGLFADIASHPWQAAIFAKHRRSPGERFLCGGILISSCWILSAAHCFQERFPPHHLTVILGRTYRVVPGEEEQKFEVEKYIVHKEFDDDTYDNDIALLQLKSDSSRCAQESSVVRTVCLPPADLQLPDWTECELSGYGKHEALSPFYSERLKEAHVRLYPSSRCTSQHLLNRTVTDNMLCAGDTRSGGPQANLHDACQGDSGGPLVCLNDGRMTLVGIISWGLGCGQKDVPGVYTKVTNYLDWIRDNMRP

T1 sequence (P00742 41-179 limits assumed): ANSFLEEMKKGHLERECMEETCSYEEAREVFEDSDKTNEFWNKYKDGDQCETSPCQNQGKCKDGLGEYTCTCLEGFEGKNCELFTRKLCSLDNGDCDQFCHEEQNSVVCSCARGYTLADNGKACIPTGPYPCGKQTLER
T1 sequence (P00742 235-488 limits assumed): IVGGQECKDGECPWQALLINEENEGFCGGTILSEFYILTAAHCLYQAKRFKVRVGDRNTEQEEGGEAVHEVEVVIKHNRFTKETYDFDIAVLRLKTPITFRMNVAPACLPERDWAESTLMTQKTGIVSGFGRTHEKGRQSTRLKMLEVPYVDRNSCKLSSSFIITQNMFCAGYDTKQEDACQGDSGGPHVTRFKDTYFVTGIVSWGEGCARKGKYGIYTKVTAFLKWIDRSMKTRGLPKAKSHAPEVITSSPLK

Structure (SMILES): Nc1nccc2ccc(C(=O)N3Cc4ccccc4C[C@H]3C(=O)Nc3ccc(-c4ccccc4S(N)(=O)=O)cc3)cc12
- IC50 (Coagulation factor X [1]): 2.77 µM
- IC50 (Prothrombin): > 10 µM

Structure (SMILES): N=C(N)c1cccc(C(=O)N2Cc3ccc(O)cc3C[C@@H]2C(=O)Nc2ccc(-c3ccccc3S(N)(=O)=O)cc2)c1
- IC50 (Coagulation factor X [2]): 1.78 µM
- IC50 (Prothrombin): > 10 µM
- IC50 (Serine protease 1): > 10 µM

Structure (SMILES): Nc1[nH]nc2ccc(C(=O)N[C@@H](C(=O)Nc3ccc(-c4ccccc4S(N)(=O)=O)cc3)c3ccccc3)cc12
- IC50 (Coagulation factor X [2]): 3.45 µM
- IC50 (Prothrombin): > 10 µM

Structure (SMILES): N=C(N)c1cccc(C(=O)N[C@H](Cc2ccccc2)C(=O)Nc2ccc(-c3ccccc3S(N)(=O)=O)cc2)c1
- IC50 (Coagulation factor X [2]): 0.0313 µM
- IC50 (Prothrombin): > 10 µM
- IC50 (Serine protease 1): > 10 µM

Structure (SMILES): N=C(N)c1cccc(C(=O)N[C@H](C(=O)Nc2ccc(-c3ccccc3S(N)(=O)=O)cc2)c2ccccc2)c1
- IC50 (Coagulation factor X [2]): 0.337 µM
- IC50 (Prothrombin): > 10 µM
- IC50 (Serine protease 1): 5.17 µM

Structure (SMILES): N=C(N)c1cccc(C(=O)N[C@@H](Cc2ccccc2)C(=O)Nc2ccc(-c3ccccc3S(N)(=O)=O)cc2)c1
- IC50 (Coagulation factor X [2]): 0.762 µM
- IC50 (Prothrombin): > 10 µM
- IC50 (Serine protease 1): > 10 µM

Structure (SMILES): Nc1noc2ccc(C(=O)N[C@@H](C(=O)Nc3ccc(-c4ccccc4S(N)(=O)=O)cc3)c3ccccc3)cc12
- IC50 (Coagulation factor X [1]): > 10 µM
- IC50 (Prothrombin): > 10 µM

Structure (SMILES): N=C(N)c1cccc(C(=O)N2CCC[C@H]2C(=O)Nc2ccc(-c3ccccc3S(N)(=O)=O)cc2)c1
- IC50 (Coagulation factor X [2]): > 10 µM
- IC50 (Prothrombin): > 10 µM
- IC50 (Serine protease 1): > 10 µM

Structure (SMILES): CC(C)[C@@H](NC(=O)c1cccc(C(=N)N)c1)C(=O)Nc1ccc(-c2ccccc2S(N)(=O)=O)cc1
- IC50 (Coagulation factor X [2]): 0.0348 µM
- IC50 (Prothrombin): > 10 µM
- IC50 (Serine protease 1): > 10 µM

Structure (SMILES): N=C(N)c1cccc(C(=O)N[C@H](C(=O)Nc2ccc(-c3ccccc3S(N)(=O)=O)cc2)C2CCCCC2)c1
- IC50 (Coagulation factor X [2]): 0.635 µM
- IC50 (Prothrombin): > 10 µM
- IC50 (Serine protease 1): > 7.93 µM

Structure (SMILES): Nc1[nH]nc2ccc(C(=O)N[C@H](C(=O)Nc3ccc(-c4ccccc4S(N)(=O)=O)cc3)c3ccccc3)cc12
- IC50 (Coagulation factor X [2]): 10 µM
- IC50 (Prothrombin): 10 µM

Structure (SMILES): N=C(N)c1cccc(C(=O)NCC(=O)Nc2ccc(-c3ccccc3S(N)(=O)=O)cc2)c1
- IC50 (Coagulation factor X [2]): 0.851 µM
- IC50 (Prothrombin): > 10 µM
- IC50 (Serine protease 1): > 10 µM

Structure (SMILES): N=C(N)c1cccc(C(=O)N[C@@H](CC(=O)OC2CCCCC2)C(=O)Nc2ccc(-c3ccccc3S(N)(=O)=O)cc2)c1
- IC50 (Coagulation factor X [2]): 0.055 µM
- IC50 (Prothrombin): > 10 µM
- IC50 (Serine protease 1): 4.81 µM

Structure (SMILES): N=C(N)c1cccc(C(=O)N2Cc3ccccc3C[C@@H]2C(=O)Nc2ccc(-c3ccccc3S(N)(=O)=O)cc2)c1
- IC50 (Coagulation factor X [2]): 0.0187 µM
- IC50 (Prothrombin): > 10 µM
- IC50 (Serine protease 1): 4.39 µM

Structure (SMILES): N=C(N)c1cccc(C(=O)N[C@@H](CCC(=O)OCc2ccccc2)C(=O)Nc2ccc(-c3ccccc3S(N)(=O)=O)cc2)c1
- IC50 (Coagulation factor X [2]): 0.644 µM
- IC50 (Prothrombin): > 10 µM
- IC50 (Serine protease 1): 5.64 µM

Structure (SMILES): CC(C)[C@H](NC(=O)c1cccc(C(=N)N)c1)C(=O)Nc1ccc(-c2ccccc2S(N)(=O)=O)cc1
- IC50 (Coagulation factor X [2]): 0.676 µM
- IC50 (Prothrombin): > 10 µM
- IC50 (Serine protease 1): > 10 µM

Structure (SMILES): N=C(N)c1cccc(C(=O)N[C@@H](CCC(=O)OC2CCCCC2)C(=O)Nc2ccc(-c3ccccc3S(N)(=O)=O)cc2)c1
- IC50 (Coagulation factor X [2]): 0.842 µM
- IC50 (Prothrombin): > 10 µM
- IC50 (Serine protease 1): > 10 µM

Structure (SMILES): N=C(N)c1cccc(C(=O)N[C@@H](CCC(=O)O)C(=O)Nc2ccc(-c3ccccc3S(N)(=O)=O)cc2)c1
- IC50 (Coagulation factor X [2]): 1.44 µM
- IC50 (Prothrombin): > 10 µM
- IC50 (Serine protease 1): > 10 µM

Structure (SMILES): N=C(N)c1cccc(C(=O)N[C@@H](C(=O)Nc2ccc(-c3ccccc3S(N)(=O)=O)cc2)c2ccccc2)c1
- bioavailability [3]: < 5%
- IC50 [4]: 6.56 µM
- IC50 (Coagulation factor X [2]): 0.0348 µM
- IC50 (Plasminogen): 18.1 µM
- IC50 (Prothrombin): > 10 µM
- IC50 [5]: > 180 µM
- IC50 (Serine protease 1): 1.77 µM

Structure (SMILES): N=C(N)c1cccc(C(=O)N2Cc3ccccc3C[C@H]2C(=O)Nc2ccc(-c3ccccc3S(N)(=O)=O)cc2)c1
- bioavailability [3]: < 5%
- IC50 [4]: 73 µM
- IC50 (Coagulation factor X [2]): 0.003 µM
- IC50 (Plasminogen): 77.9 µM
- IC50 (Prothrombin): > 10 µM
- IC50 [5]: 180 µM
- IC50 (Serine protease 1): 2.15 µM

Structure (SMILES): N=C(N)c1cccc(C(=O)N2Cc3ccc(O)cc3C[C@H]2C(=O)Nc2ccc(-c3ccccc3S(N)(=O)=O)cc2)c1
- IC50 (Coagulation factor X [2]): 0.0967 µM
- IC50 (Prothrombin): > 10 µM
- IC50 (Serine protease 1): 0.888 µM
